In PubChem BioAssay (NCI):
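GI50 marks 50% less growth. TGI: total growth inhibition.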

Experiments:
Experiment in all cases: NCI-60 cell line screen, 384-well format
UACC-62 melanoma = test system: UACC-62 melanoma
HOP-62 NSCLC = test system: HOP-62 NSCLC
HS 578T breast = test system: HS 578T breast
SNB-75 CNS = test system: SNB-75 CNS
LOX IMVI melanoma = test system: LOX IMVI melanoma
K-562 leukemia = test system: K-562 leukemia
PC-3 prostate = test system: PC-3 prostate
OVCAR-8 ovarian = test system: OVCAR-8 ovarian
OVCAR-5 ovarian = test system: OVCAR-5 ovarian
M14 melanoma = test system: M14 melanoma
MOLT-4 leukemia = test system: MOLT-4 leukemia
SF-268 CNS = test system: SF-268 CNS
HCC-2998 colon = test system: HCC-2998 colon
T-47D breast = test system: T-47D breast
SF-539 CNS = test system: SF-539 CNS
HL-60(TB) leukemia = test system: HL-60(TB) leukemia
SW-620 colon = test system: SW-620 colon
NCI-H522 lung = test system: NCI-H522 lung
HCT-15 colon = test system: HCT-15 colon
MALME-3M melanoma = test system: MALME-3M melanoma
NCI-H226 lung = test system: NCI-H226 lung
SK-MEL-2 melanoma = test system: SK-MEL-2 melanoma
NCI-H23 lung = test system: NCI-H23 lung
BT-549 breast = test system: BT-549 breast
OVCAR-4 ovarian = test system: OVCAR-4 ovarian
CAKI-1 renal = test system: CAKI-1 renal
SK-MEL-5 melanoma = test system: SK-MEL-5 melanoma
UO-31 renal = test system: UO-31 renal
SK-OV-3 ovarian = test system: SK-OV-3 ovarian
RXF 393 renal = test system: RXF 393 renal
SNB-19 CNS = test system: SNB-19 CNS
NCI/ADR-RES ovarian = test system: NCI/ADR-RES ovarian
HOP-92 NSCLC = test system: HOP-92 NSCLC
HCT-116 colon = test system: HCT-116 colon
TK-10 renal = test system: TK-10 renal
MDA-MB-231 breast = test system: MDA-MB-231 breast
ACHN renal = test system: ACHN renal
EKVX NSCLC = test system: EKVX NSCLC
SR leukemia = test system: SR leukemia
A498 renal = test system: A498 renal
HT29 colon = test system: HT29 colon
DU-145 prostate = test system: DU-145 prostate
SF-295 CNS = test system: SF-295 CNS
NCI-H322M lung = test system: NCI-H322M lung
UACC-257 melanoma = test system: UACC-257 melanoma
RPMI-8226 leukemia = test system: RPMI-8226 leukemia
MDA-MB-468 breast = test system: MDA-MB-468 breast

## Cc1nc2ccc(-n3ncc(C(=O)c4cc5ccccc5[nH]4)c3N)cc2[nH]1
UACC-62 melanoma
  GI50: 5.92 µM
  TGI: 18.6 µM
HOP-62 NSCLC
  GI50: 12.2 µM
  TGI: 29.6 µM
HS 578T breast
  GI50: 6.48 µM
  TGI: 26 µM
SNB-75 CNS
  GI50: 2.34 µM
  TGI: 19.8 µM
LOX IMVI melanoma
  GI50: 3.27 µM
  TGI: 8.34 µM
K-562 leukemia
  GI50: 3.95 µM
  TGI: 14.3 µM
PC-3 prostate
  GI50: 7.51 µM
  TGI: 26.6 µM
OVCAR-8 ovarian
  GI50: 6.08 µM
  TGI: 18.8 µM
OVCAR-5 ovarian
  GI50: 8.84 µM
  TGI: > 82.6 µM
M14 melanoma
  GI50: 12.5 µM
  TGI: 28.4 µM
MOLT-4 leukemia
  GI50: 1.93 µM
  TGI: 5 µM
SF-268 CNS
  GI50: 10.6 µM
  TGI: 55.9 µM
HCC-2998 colon
  GI50: 13.1 µM
  TGI: 30.8 µM
T-47D breast
  GI50: 6.8 µM
  TGI: 19.3 µM
SF-539 CNS
  GI50: 2.13 µM
  TGI: 10.5 µM
HL-60(TB) leukemia
  GI50: 2.97 µM
  TGI: 12.3 µM
SW-620 colon
  GI50: 10.4 µM
  TGI: 51.2 µM
NCI-H522 lung
  GI50: 5.33 µM
  TGI: 17.6 µM
HCT-15 colon
  GI50: 1.56 µM
  TGI: 13.4 µM
MALME-3M melanoma
  GI50: 13.1 µM
  TGI: 33.8 µM
NCI-H226 lung
  GI50: 5.45 µM
  TGI: 29.5 µM
SK-MEL-2 melanoma
  GI50: 28.2 µM
  TGI: 44 µM
NCI-H23 lung
  GI50: 17.5 µM
  TGI: 36.4 µM
BT-549 breast
  GI50: 5.72 µM
  TGI: 20.7 µM
OVCAR-4 ovarian
  GI50: 10.4 µM
  TGI: 40.2 µM
CAKI-1 renal
  GI50: 6.43 µM
  TGI: 39.8 µM
SK-MEL-5 melanoma
  GI50: 4.2 µM
  TGI: 17.4 µM
UO-31 renal
  GI50: 7.35 µM
  TGI: 34.5 µM
SK-OV-3 ovarian
  GI50: 11.3 µM
  TGI: 30.6 µM
RXF 393 renal
  GI50: 2.37 µM
  TGI: 10.5 µM
SNB-19 CNS
  GI50: 16 µM
  TGI: > 66.7 µM
NCI/ADR-RES ovarian
  GI50: 8.76 µM
  TGI: 23.8 µM
HOP-92 NSCLC
  GI50: 10.3 µM
  TGI: 30.3 µM
HCT-116 colon
  GI50: 3.78 µM
  TGI: 16.1 µM
TK-10 renal
  GI50: 4.78 µM
  TGI: 20.5 µM
MDA-MB-231 breast
  GI50: 4.8 µM
  TGI: 44.9 µM
ACHN renal
  GI50: 8.92 µM
  TGI: 48.5 µM
EKVX NSCLC
  GI50: 15.3 µM
  TGI: 41.1 µM
SR leukemia
  GI50: 0.668 µM
  TGI: 1.58 µM
A498 renal
  GI50: 12.4 µM
  TGI: 33.5 µM
HT29 colon
  GI50: 5.55 µM
  TGI: 20.5 µM
DU-145 prostate
  GI50: 12.7 µM
  TGI: 41.7 µM
SF-295 CNS
  GI50: 10.4 µM
  TGI: 26.9 µM
NCI-H322M lung
  GI50: 16.4 µM
  TGI: 38.9 µM
UACC-257 melanoma
  GI50: 15.1 µM
  TGI: 32.6 µM
RPMI-8226 leukemia
  GI50: 6.35 µM
  TGI: 17.3 µM
MDA-MB-468 breast
  GI50: 4.15 µM
  TGI: 16.7 µM

## CC(C)n1cc(-c2ccc3c(c2)N(C)CC3)c2c(NS(=O)(=O)c3ccn(C)n3)ccnc21
UACC-62 melanoma
  GI50: 63.4 µM
  TGI: > 100 µM
HOP-62 NSCLC
  GI50: > 78.1 µM
  TGI: > 100 µM
HS 578T breast
  GI50: 69.3 µM
  TGI: > 100 µM
SNB-75 CNS
  GI50: > 88.1 µM
  TGI: > 100 µM
LOX IMVI melanoma
  GI50: 65.8 µM
  TGI: > 100 µM
K-562 leukemia
  GI50: 53.2 µM
  TGI: > 100 µM
PC-3 prostate
  GI50: 66.7 µM
  TGI: > 100 µM
OVCAR-8 ovarian
  GI50: > 70.4 µM
  TGI: > 100 µM
OVCAR-5 ovarian
  GI50: > 100 µM
  TGI: > 100 µM
M14 melanoma
  GI50: > 100 µM
  TGI: > 100 µM
MOLT-4 leukemia
  GI50: 39.1 µM
  TGI: > 100 µM
SF-268 CNS
  GI50: > 100 µM
  TGI: > 100 µM
HCC-2998 colon
  GI50: > 100 µM
  TGI: > 100 µM
T-47D breast
  GI50: 50.9 µM
  TGI: > 100 µM
SF-539 CNS
  GI50: > 100 µM
  TGI: > 100 µM
HL-60(TB) leukemia
  GI50: 33.1 µM
  TGI: > 61.4 µM
SW-620 colon
  GI50: > 51.5 µM
  TGI: > 81.7 µM
NCI-H522 lung
  GI50: > 80.4 µM
  TGI: > 100 µM
HCT-15 colon
  GI50: 90.6 µM
  TGI: > 100 µM
MALME-3M melanoma
  GI50: > 100 µM
  TGI: > 100 µM
NCI-H226 lung
  GI50: > 96.1 µM
  TGI: > 100 µM
SK-MEL-2 melanoma
  GI50: > 100 µM
  TGI: > 100 µM
NCI-H23 lung
  GI50: > 70 µM
  TGI: > 100 µM
BT-549 breast
  GI50: > 100 µM
  TGI: > 100 µM
OVCAR-4 ovarian
  GI50: 59.8 µM
  TGI: > 100 µM
CAKI-1 renal
  GI50: > 100 µM
  TGI: > 100 µM
SK-MEL-5 melanoma
  GI50: > 100 µM
  TGI: > 100 µM
UO-31 renal
  GI50: 78.6 µM
  TGI: > 100 µM
SK-OV-3 ovarian
  GI50: > 52.6 µM
  TGI: > 85.4 µM
RXF 393 renal
  GI50: 51.2 µM
  TGI: > 100 µM
SNB-19 CNS
  GI50: > 100 µM
  TGI: > 100 µM
NCI/ADR-RES ovarian
  GI50: 61.2 µM
  TGI: > 100 µM
HOP-92 NSCLC
  GI50: > 62.9 µM
  TGI: > 100 µM
HCT-116 colon
  GI50: > 100 µM
  TGI: > 100 µM
TK-10 renal
  GI50: > 100 µM
  TGI: > 100 µM
MDA-MB-231 breast
  GI50: > 68.8 µM
  TGI: > 100 µM
ACHN renal
  GI50: > 100 µM
  TGI: > 100 µM
EKVX NSCLC
  GI50: 75.6 µM
  TGI: > 100 µM
SR leukemia
  GI50: 36.5 µM
  TGI: > 100 µM
A498 renal
  GI50: 85.7 µM
  TGI: > 100 µM
HT29 colon
  GI50: > 77.2 µM
  TGI: > 100 µM
DU-145 prostate
  GI50: > 70.7 µM
  TGI: > 100 µM
SF-295 CNS
  GI50: 37 µM
  TGI: > 91.2 µM
NCI-H322M lung
  GI50: > 100 µM
  TGI: > 100 µM
UACC-257 melanoma
  GI50: > 100 µM
  TGI: > 100 µM
RPMI-8226 leukemia
  GI50: 21.8 µM
  TGI: 52.9 µM
MDA-MB-468 breast
  GI50: 56.8 µM
  TGI: > 100 µM
